Values joined by “and” are separate entries in the source; they are usually repeats but may differ in a detail not shown here. Identical values can stand only once. Toxic doses and inconclusive results are not listed. Cut-off read from the data, not from the text of the source: active = T/C of 150% or more; inactive = T/C below 125%.
Test system: L1210 leukemia ip in BDF1 mice, survival T/C
Assay: NCI In Vivo Anticancer Drug Screen. Data for tumor model L1210 Leukemia (intraperitoneal) in B6D2F1 (BDF1) mice
Conditions: endpoint: mean survival time, higher = longer survival
How it was run: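 Tumor cells were implanted, animals were treated, and survival was followed. The result divides the treated measurement by the vehicle-control measurement.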

[1] = dose: 100.0 mg/kg/injection, schedule: Q01DX001 (ip), vehicle: saline
[2] = dose: 200.0 mg/kg/injection, schedule: Q01DX001 (ip), vehicle: saline
[3] = dose: 400.0 mg/kg/injection, schedule: Q01DX001 (ip), vehicle: saline
[4] = dose: 6.25 mg/kg/injection, schedule: Q04DX003 (ip), vehicle: saline
[5] = dose: 12.5 mg/kg/injection, schedule: Q04DX003 (ip), vehicle: saline
[6] = dose: 25.0 mg/kg/injection, schedule: Q04DX003 (ip), vehicle: saline
[7] = dose: 50.0 mg/kg/injection, schedule: Q04DX003 (ip), vehicle: saline
[8] = dose: 100.0 mg/kg/injection, schedule: Q01DX001 (ip), vehicle: carboxymethylcellulose (CMC)
[9] = dose: 200.0 mg/kg/injection, schedule: Q01DX001 (ip), vehicle: carboxymethylcellulose (CMC)
[10] = dose: 100.0 mg/kg/injection, schedule: Q04DX002 (ip), vehicle: saline with Tween-80
[11] = dose: 200.0 mg/kg/injection, schedule: Q04DX002 (ip), vehicle: saline with Tween-80
[12] = dose: 100.0 mg/kg/injection, schedule: Q04DX002 (ip), vehicle: Klucel (hydroxypropylcellulose) (HPC)
[13] = dose: 200.0 mg/kg/injection, schedule: Q04DX002 (ip), vehicle: Klucel (hydroxypropylcellulose) (HPC)
[14] = dose: 400.0 mg/kg/injection, schedule: Q04DX002 (ip), vehicle: Klucel (hydroxypropylcellulose) (HPC)
[15] = dose: 50.0 mg/kg/injection, schedule: Q01DX001 (ip), vehicle: saline
[16] = dose: 100.0 mg/kg/injection, schedule: Q01DX009 (ip), vehicle: Klucel (hydroxypropylcellulose) (HPC)
[17] = dose: 400.0 mg/kg/injection, schedule: Q01DX009 (ip), vehicle: Klucel (hydroxypropylcellulose) (HPC)
[18] = dose: 100.0 mg/kg/injection, schedule: Q04DX003 (ip), vehicle: saline with Tween-80
[19] = dose: 200.0 mg/kg/injection, schedule: Q04DX003 (ip), vehicle: saline with Tween-80
[20] = dose: 400.0 mg/kg/injection, schedule: Q04DX003 (ip), vehicle: saline with Tween-80
[21] = dose: 400.0 mg/kg/injection, schedule: Q01DX001 (ip), vehicle: carboxymethylcellulose (CMC)
[22] = dose: 100.0 mg/kg/injection, schedule: Q04DX003 (ip), vehicle: Klucel (hydroxypropylcellulose) (HPC)
[23] = dose: 200.0 mg/kg/injection, schedule: Q01DX009 (ip), vehicle: Klucel (hydroxypropylcellulose) (HPC)
[24] = dose: 200.0 mg/kg/injection, schedule: Q04DX003 (ip), vehicle: Klucel (hydroxypropylcellulose) (HPC)
[25] = dose: 400.0 mg/kg/injection, schedule: Q04DX003 (ip), vehicle: Klucel (hydroxypropylcellulose) (HPC)

Measured: T/C

CCCNC(c1ccc(C=NC(CC)(CO)CO)cc1)C(Cl)(Cl)Cl (stereo unspecified)
inactive: [1] 89 % of control | [2] 92 % of control | [3] 97 % of control

CC([NH-])C(=O)O.CC([NH-])C(=O)O.[Ni+2] (stereo unspecified)
inactive: dose: 3.12 mg/kg/injection, schedule: Q01DX009 (ip), vehicle: saline 98 % of control | dose: 6.25 mg/kg/injection, schedule: Q01DX009 (ip), vehicle: saline 101 % of control | [4] 102 % of control | dose: 12.5 mg/kg/injection, schedule: Q01DX009 (ip), vehicle: saline 95 % of control | [5] 98 % of control and 104 % of control | [6] 105 % of control and 109 % of control | [7] 101 % of control

COC1OCC(COC(=O)c2ccc([N+](=O)[O-])cc2)C1OC(=O)c1ccc([N+](=O)[O-])cc1 (stereo unspecified)
inactive: [8] 88 % of control | [9] 88 % of control

O=C(C1C(c2ccccc2)C1c1ccccc1)N(CCO)c1ccccc1 (stereo unspecified)
inactive: dose: 12.5 mg/kg/injection, schedule: Q04DX002 (ip), vehicle: saline 94 % of control | dose: 25.0 mg/kg/injection, schedule: Q04DX002 (ip), vehicle: saline 106 % of control | dose: 50.0 mg/kg/injection, schedule: Q04DX002 (ip), vehicle: saline 94 % of control

COC(=O)C[CH2][Pb]([c]1ccccc1)([c]1ccccc1)[c]1ccccc1
inactive: [10] 102 % of control | [11] 113 % of control

CN(C)C(=S)SSSSC(=S)N(C)C
inactive: [12] 108 % of control | [13] 108 % of control | [14] 99 % of control and 90 % of control

Cc1ccc2c(c1[N+](=O)[O-])C(=O)c1ccccc1C2=O
inactive: [15] 96 % of control | [1] 90 % of control | [16] 100 % of control | [12] 104 % of control | [2] 90 % of control | [13] 110 % of control | [3] 90 % of control | [17] 111 % of control | [14] 96 % of control

CCC1(C)n2c(=O)c3ccccc3c(=O)n21
inactive: [10] 97 % of control | [11] 101 % of control | dose: 400.0 mg/kg/injection, schedule: Q04DX002 (ip), vehicle: saline with Tween-80 90 % of control

COC(=O)C(N)CSCSC (stereo unspecified)
inactive: dose: 100.0 mg/kg/injection, schedule: Q01DX009 (ip), vehicle: saline 107 % of control | dose: 100.0 mg/kg/injection, schedule: Q04DX003 (ip), vehicle: saline 103 % of control | dose: 200.0 mg/kg/injection, schedule: Q01DX009 (ip), vehicle: saline 101 % of control | dose: 200.0 mg/kg/injection, schedule: Q04DX003 (ip), vehicle: saline 105 % of control | dose: 400.0 mg/kg/injection, schedule: Q01DX009 (ip), vehicle: saline 101 % of control | dose: 400.0 mg/kg/injection, schedule: Q04DX003 (ip), vehicle: saline 97 % of control

O=c1cc(CNC23CC4CC(CC(C4)C2)C3)[nH]c(=O)[nH]1
inactive: [18] 96 % of control | [19] 96 % of control | [20] 89 % of control

CCCC1=NNC(=O)C1
inactive: [8] 100 % of control | [9] 100 % of control | [21] 96 % of control

CN(C)Cc1cc2ccccc2cc1C(O)(c1ccccc1)c1ccccc1
inactive: dose: 50.0 mg/kg/injection, schedule: Q01DX001 (ip), vehicle: carboxymethylcellulose (CMC) 102 % of control | [8] 88 % of control | [9] 94 % of control | [21] 96 % of control

CCCCNC(=O)NC1CC(OC2CC(O)(C(C)=O)Cc3c(O)c4c(c(O)c32)C(=O)c2c(OC)cccc2C4=O)OC(C)C1O (stereo unspecified)
inactive: dose: 1.0 mg/kg/injection, schedule: Q04DX003 (ip), vehicle: water 104 % of control | dose: 2.0 mg/kg/injection, schedule: Q04DX003 (ip), vehicle: water 97 % of control | dose: 4.0 mg/kg/injection, schedule: Q04DX003 (ip), vehicle: water 98 % of control | dose: 8.0 mg/kg/injection, schedule: Q04DX003 (ip), vehicle: water 98 % of control | dose: 16.0 mg/kg/injection, schedule: Q04DX003 (ip), vehicle: water 94 % of control | dose: 32.0 mg/kg/injection, schedule: Q04DX003 (ip), vehicle: water 101 % of control

O=Cc1ccc(N(c2ccc(C=O)cc2)c2ccc(C=O)cc2)cc1
inactive: [18] 100 % of control | [19] 89 % of control | [20] 92 % of control

c1ccc2c(c1)Sc1ccccc1N2CCCN1CCCC1
inactive: [4] 108 % of control | [5] 105 % of control | [6] 116 % of control | [15] 108 % of control and 123 % of control | [7] 106 % of control | [1] 97 % of control and 103 % of control

NC(=O)c1cc(Cl)c(OCc2ccccc2)c(Cl)c1
inactive: dose: 75.0 mg/kg/injection, schedule: Q01DX001 (ip), vehicle: saline with Tween-80 98 % of control | dose: 150.0 mg/kg/injection, schedule: Q01DX001 (ip), vehicle: saline with Tween-80 103 % of control | dose: 300.0 mg/kg/injection, schedule: Q01DX001 (ip), vehicle: saline with Tween-80 98 % of control

C1=C\CCC2(OCCO2)C2(CC/1)OCCO2
inactive: dose: 50.0 mg/kg/injection, schedule: Q04DX003 (ip), vehicle: Klucel (hydroxypropylcellulose) (HPC) 100 % of control | dose: 100.0 mg/kg/injection, schedule: Q01DX001 (ip), vehicle: Klucel (hydroxypropylcellulose) (HPC) 111 % of control | [16] 104 % of control | [22] 100 % of control | dose: 200.0 mg/kg/injection, schedule: Q01DX001 (ip), vehicle: Klucel (hydroxypropylcellulose) (HPC) 109 % of control | [23] 98 % of control | [24] 97 % of control | dose: 400.0 mg/kg/injection, schedule: Q01DX001 (ip), vehicle: Klucel (hydroxypropylcellulose) (HPC) 105 % of control | [17] 98 % of control | [25] 95 % of control

CCn1cc(C(=O)O)c(=O)c2ccc(-c3ccncc3)cc21
inactive: [16] 98 % of control | [22] 91 % of control | [23] 101 % of control | [24] 91 % of control | [17] 102 % of control | [25] 89 % of control

CCOC1=CCN(S(=O)(=O)c2ccc(C)cc2)c2ccc(OC)cc21
inactive: [16] 100 % of control | [22] 104 % of control | [23] 96 % of control | [24] 94 % of control | [17] 89 % of control | [25] 98 % of control

O=C(NC(=S)N1CC1)c1ccccc1
inactive: dose: 100.0 mg/kg/injection, schedule: Q04DX002 (sc), vehicle: olive oil, sesame oil, peanut oil 100 % of control | dose: 200.0 mg/kg/injection, schedule: Q04DX002 (sc), vehicle: olive oil, sesame oil, peanut oil 103 % of control | dose: 400.0 mg/kg/injection, schedule: Q04DX002 (sc), vehicle: olive oil, sesame oil, peanut oil 100 % of control

— PubChem BioAssay AID248 (DTP/NCI, 2004)
